Values quoted from earlier work as cited in patent US6465436B2, “Method for treating alcohol intoxication and alcohol abuse” (McLean Hospital, priority 2000, dated 2002).

Legend:
[1] = for alcohol consumption suppressing activity of herbal medicines derived from Pueraria lobata (fractionation studies): U.S. Pat. No. 5,783,189
[2] = in vivo
[3] = biological target: T1, human ALDH-1 (Homo sapiens, UniProt P05091)
T1 sequence (P05091 18-517): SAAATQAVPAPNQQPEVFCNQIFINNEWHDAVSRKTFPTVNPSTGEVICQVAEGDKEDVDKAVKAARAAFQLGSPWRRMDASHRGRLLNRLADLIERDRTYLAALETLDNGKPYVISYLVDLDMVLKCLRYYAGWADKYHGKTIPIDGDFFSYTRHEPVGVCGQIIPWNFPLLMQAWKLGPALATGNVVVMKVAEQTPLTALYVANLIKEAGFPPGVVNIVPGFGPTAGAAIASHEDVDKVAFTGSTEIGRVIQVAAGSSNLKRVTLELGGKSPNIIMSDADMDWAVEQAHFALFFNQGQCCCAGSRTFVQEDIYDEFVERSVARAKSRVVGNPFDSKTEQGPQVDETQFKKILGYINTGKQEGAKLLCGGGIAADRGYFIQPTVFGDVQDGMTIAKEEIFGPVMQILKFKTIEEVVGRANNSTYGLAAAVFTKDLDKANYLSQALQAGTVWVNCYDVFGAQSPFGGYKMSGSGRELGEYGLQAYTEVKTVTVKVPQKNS

[4] = system: Syrian Golden hamsters
[5] = system: ALDH

Compound | alcohol consumption suppressing activity of herbal medicines derived from Pueraria lobata (fractionation studies) [1] | blood alcohol levels [2] | sleep time induced by alcohol [2] | human ALDH-1 inhibition [3] | alcohol intake [4] | ALDH inhibition [5] | activity in suppressing alcohol intake relative to daidzin ([1]; in vivo)
COc1cc(-c2coc3c([C@@H]4O[C@H](CO)[C@@H](O)[C@H](O)[C@H]4O)c(O)ccc3c2=O)ccc1O [3′-methoxypuerarin] | primarily responsible for the alcohol consumption suppressing activity |  |  |  |  |  | 
O=c1c(-c2ccc(O)cc2)coc2cc(O)ccc12 [daidzein] | primarily responsible for the alcohol consumption suppressing activity | decreases blood alcohol levels | shortens sleep time | potent human ALDH-1 inhibitors | suppressed alcohol intake |  | 
O=c1c(-c2ccc(O)cc2)coc2cc(O[C@@H]3O[C@H](CO)[C@@H](O)[C@H](O)[C@H]3O)ccc12 [daidzin] | primarily responsible for the alcohol consumption suppressing activity |  |  | potent human ALDH-1 inhibitors | suppressed alcohol intake |  | 
O=c1c(-c2ccc(O)cc2)coc2c([C@@H]3O[C@H](CO[C@@H]4OC[C@](O)(CO)[C@H]4O)[C@@H](O)[C@H](O)[C@H]3O)c(O)ccc12 [mirificin] | primarily responsible for the alcohol consumption suppressing activity |  |  |  |  |  | 
O=c1c(-c2ccc(O)cc2)coc2c([C@@H]3O[C@H](CO)[C@@H](O)[C@H](O)[C@H]3O)c(O)ccc12 [puerarin] | primarily responsible for the alcohol consumption suppressing activity |  |  |  |  | not an ALDH inhibitor | slightly less active than daidzin
